Test results taken from patent US8778966B2, “Quinolinone derivatives as PARP and tank inhibitors” (Janssen Pharmaceutica, NV, priority 2007, dated 2014).

What was measured:
TANK-2 enzyme = target: T1, TANK-2 enzyme (Homo sapiens, UniProt Q9H2K2); test: In vitro Scintillation Proximity Assay (SPA) for TANK-2 inhibitory activity; assay type: biochemical; conditions: read-out: in vitro SPA assay TANK-2 pIC50 (converted)
T1 construct: made in house
T1 sequence (Q9H2K2 1-1166): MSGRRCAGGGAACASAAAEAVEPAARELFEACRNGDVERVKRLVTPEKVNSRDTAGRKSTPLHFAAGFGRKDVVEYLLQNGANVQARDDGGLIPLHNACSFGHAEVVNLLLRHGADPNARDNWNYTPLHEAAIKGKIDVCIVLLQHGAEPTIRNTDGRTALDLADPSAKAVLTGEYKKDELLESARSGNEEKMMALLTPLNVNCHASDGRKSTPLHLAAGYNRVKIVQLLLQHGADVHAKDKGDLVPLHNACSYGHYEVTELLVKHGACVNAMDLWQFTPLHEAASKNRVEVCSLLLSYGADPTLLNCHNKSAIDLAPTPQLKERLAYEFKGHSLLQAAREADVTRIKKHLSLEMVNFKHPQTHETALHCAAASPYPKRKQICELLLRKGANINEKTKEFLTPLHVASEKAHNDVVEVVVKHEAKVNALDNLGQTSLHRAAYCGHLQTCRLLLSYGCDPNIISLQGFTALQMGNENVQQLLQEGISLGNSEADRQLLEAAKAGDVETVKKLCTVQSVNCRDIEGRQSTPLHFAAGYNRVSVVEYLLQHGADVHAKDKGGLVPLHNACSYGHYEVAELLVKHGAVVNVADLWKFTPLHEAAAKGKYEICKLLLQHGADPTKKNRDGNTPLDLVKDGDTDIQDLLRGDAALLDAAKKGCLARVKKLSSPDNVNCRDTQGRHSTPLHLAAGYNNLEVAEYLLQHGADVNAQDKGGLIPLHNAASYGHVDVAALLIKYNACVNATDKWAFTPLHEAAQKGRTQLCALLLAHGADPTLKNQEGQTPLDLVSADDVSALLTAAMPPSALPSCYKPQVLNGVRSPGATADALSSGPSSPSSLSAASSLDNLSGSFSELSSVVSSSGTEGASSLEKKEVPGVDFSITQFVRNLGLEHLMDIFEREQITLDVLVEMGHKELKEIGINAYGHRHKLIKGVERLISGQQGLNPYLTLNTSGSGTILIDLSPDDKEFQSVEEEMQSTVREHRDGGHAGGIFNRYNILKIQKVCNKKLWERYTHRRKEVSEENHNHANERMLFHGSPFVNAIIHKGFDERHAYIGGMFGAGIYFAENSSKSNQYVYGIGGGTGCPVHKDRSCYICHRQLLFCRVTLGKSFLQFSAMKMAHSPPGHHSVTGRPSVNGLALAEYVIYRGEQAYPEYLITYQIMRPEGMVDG
In short: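 TANK-2 (8 μg/ml final) auto-poly(ADP-ribosyl)ation with [3H]-NAD+/NAD donor was run in Ni flash plates in Tris/HCl pH 7.4 buffer with DTT and MgCl2, 120 min at room temperature, then stopped with excess NAD and scintillation-counted. Blank-corrected cpm was expressed as % of enzyme control, and IC50 was linearly interpolated and reported as pIC50.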

tubulin = test: Tubulin polymerization assay; assay type: biochemical; design: key: a compound showing 0 to 50% inhibition at 20 μM is reported as score 1; Score 2 compounds are defined as compound showing more than 50% inhibition at 20 μM and less than 50% inhibition at 5 μM; a compound showing more than 50% inhibition at 5 μM is reported as score 3; conditions: tested at 20 μM and 5 μM
Protocol: The tubulin polymerization assay is an adaptation of an assay originally described by Bonne, D. et al. (J. Biol. Chem., 1985, 260:2819-25). The assay kit was purchased from Cytoskeleton, Inc. (catalogue number BK011) and the assay was performed as described by the supplier with the following modifications. The assay was run in a 384-well black Proxiplate (Perkin Elmer) and volumes were adapted accordingly. The reactions were carried out in a final volume of 10 μl. Compounds were added to 25 μl of the reaction mix in 96-well PP plates (Corning) on ice and 10 μl of this mixture was dispensed into duplicates of the 384-well Proxiplates pre-warmed to 37° C. in a Fluoroskan Ascent plate reader (Thermo Scientific). Fluorescence measurements were taken every minute for one hour. The maximum slope of each well was determined (linear regression through 4 consecutive points) and polymerization was calculated as a percentage of polymerization observed in the absence of compound. Compounds were first measured at a concentration of 20 μM and then at 5 μM for those showing more than 50% inhibition at 20 μM as compared to the polymerization observed in the absence of compound. Results are reported in Table F-2 as scores defined as: a compound showing 0 to 50% inhibition at 20 μM is reported as score 1; a compound showing more than 50% inhibition at 5 μM is reported as score 3.

IC50 (TANK-2 enzyme) [nM]	Structure (SMILES)	tubulin polymerisation score (tubulin)
1260	CCc1cc2ccc(C(C)(C#N)C3CCc4ccc(Br)cc43)cc2[nH]c1=O (single isomer, unassigned) [Compound 381]	
1000	CCc1cc2ccc([C@](C)(C#N)[C@H]3CCOc4ccccc43)cc2[nH]c1=O (single isomer, unassigned) [Compound 394]	1 (a compound showing 0 to 50% inhibition at 20 μM is reported as score 1)
501	CCc1cc2ccc([C@@](C)(C#N)[C@H]3CCOc4ccccc43)cc2[nH]c1=O (single isomer, unassigned) [Compound 395]	2
158	CCc1cc2ccc([C@](C)(C#N)C[C@H]3CCc4ccccc4O3)cc2[nH]c1=O (single isomer, unassigned) [Compound 396]	
1260	CCC(=O)c1cccc(CC(C)(C#N)c2ccc3cc(C)c(=O)[nH]c3c2)c1 (centres unmarked) [Compound 173]	3 (a compound showing more than 50% inhibition at 5 μM is reported as score 3)
631	Cc1cc2ccc(C(C)(C#N)Cc3cccc(Oc4ccccc4)n3)cc2[nH]c1=O (centres unmarked) [Compound 193]	
100	CCc1cnc(OCCC(C)(C#N)c2ccc3cc(CC)c(=O)[nH]c3c2)nc1 (centres unmarked) [Compound 222]	
794	CCc1cc2ccc(C(C)(C#N)CCOc3nccc(OC)n3)cc2[nH]c1=O (centres unmarked) [Compound 223]	
316	Cc1cc2ccc(C(C)(C#N)Cc3cccc(C#N)n3)cc2[nH]c1=O (centres unmarked) [Compound 227]	
251	C=C(C)c1cccc(CC(C)(C#N)c2ccc3cc(CC)c(=O)[nH]c3c2)c1 (centres unmarked) [Compound 254]	
100	CCc1cc2ccc(C(C#N)(CC)Cc3cccc(C#N)c3)cc2[nH]c1=O (centres unmarked) [Compound 265]	2
25.1	CCc1cc2ccc(C(C)(C#N)Cc3cc(F)cc(C#N)c3)cc2[nH]c1=O (centres unmarked) [Compound 266]	3 (a compound showing more than 50% inhibition at 5 μM is reported as score 3)
316	CCc1cc2ccc(C(C#N)(CC)Cc3cccc(F)c3)cc2[nH]c1=O (centres unmarked) [Compound 270]	
794	Cc1cc2ccc(C(C)(C#N)Cc3cc(F)cc(F)c3)cc2[nH]c1=O (centres unmarked) [Compound 282]	
501	CCc1cc2ccc(C(C)(C#N)Cc3cc(C)cc(Br)c3)cc2[nH]c1=O (centres unmarked) [Compound 284]	
1000	CCc1cc2ccc(C(C#N)(CC)Cc3cccc(OC)c3)cc2[nH]c1=O (centres unmarked) [Compound 287]	2
100	CCOc1cc(N(C)C)nc(CC(C)(C#N)c2ccc3cc(CC)c(=O)[nH]c3c2)n1 (centres unmarked) [Compound 312]	
100	CCOc1cc(C#N)nc(CC(C)(C#N)c2ccc3cc(CC)c(=O)[nH]c3c2)n1 (centres unmarked) [Compound 315]	2
20	CCc1cc2ccc(C(C)(C#N)Cc3ccnc(C#N)c3)cc2[nH]c1=O (centres unmarked) [Compound 324]	1 (a compound showing 0 to 50% inhibition at 20 μM is reported as score 1)
398	CCc1cc2ccc(C(C)(C#N)Cc3cc(C)nc(Cl)c3)cc2[nH]c1=O (centres unmarked) [Compound 326]	
20	CCc1cc2ccc(C(C)(C#N)Cc3cc(C)nc(C#N)c3)cc2[nH]c1=O (centres unmarked) [Compound 328]	2
398	CCc1cc2ccc(C(C)(C#N)Cc3ccnc(F)c3)cc2[nH]c1=O (centres unmarked) [Compound 330]	
79.4	CCc1cc2ccc(C(C)(C#N)Cc3cccc(F)n3)cc2[nH]c1=O (centres unmarked) [Compound 331]	2
79.4	CCc1cc2ccc([C@](C)(C#N)Cc3cc(F)cc(F)c3)cc2[nH]c1=O [Compound 333]	1 (a compound showing 0 to 50% inhibition at 20 μM is reported as score 1)
79.4	CCc1cc2ccc(C(C)(C#N)Cc3ccnc(Cl)c3)cc2[nH]c1=O (centres unmarked) [Compound 341]	
200	CCc1cc2ccc(C(C)(C#N)CCOc3ccnc(SC)n3)cc2[nH]c1=O (centres unmarked) [Compound 348]	
316	CCc1cc2ccc(C(C#N)(CC)Cc3cccc(CN)c3)cc2[nH]c1=O (centres unmarked) [Compound 390]	

Second part, the compound before the results:

Structure (SMILES)	IC50 (TANK-2 enzyme) [nM]	tubulin polymerisation score (tubulin)
Cc1cc2ccc(C(C)(C#N)C3CCc4c(C#N)cccc43)cc2[nH]c1=O (racemic) [Compound 393]	794	
CCc1cc2ccc(C(C)(C#N)C3CCc4ccc(Br)cc43)cc2[nH]c1=O (single isomer, unassigned) [Compound 380]	2510	
Cc1cc2ccc([C@](C)(C#N)C3CCc4cccnc43)cc2[nH]c1=O (single isomer, unassigned) [Compound 388]	631	
Cc1cc2ccc(C(C)(C#N)Cc3cccc(Oc4ncccn4)c3)cc2[nH]c1=O (centres unmarked) [Compound 191]	1580	
Cc1cc2ccc([C@@](C)(C#N)[C@@H]3CCc4cc(Br)ccc43)cc2[nH]c1=O [Compound 240]	6310	
Cc1cc2ccc([C@@](C)(C#N)[C@H]3CCc4cc(Br)ccc43)cc2[nH]c1=O [Compound 241]	6310	
Cc1cc2ccc([C@](C)(C#N)[C@@H]3CCc4cc(Br)ccc43)cc2[nH]c1=O [Compound 242]	7940	
Cc1cc2ccc(C(C)(C#N)C3CCc4cc(Br)ccc43)cc2[nH]c1=O (centres unmarked) [Compound 244]	7940	
Cc1cc2ccc(C(C)(C#N)C3CCc4c(Br)cccc43)cc2[nH]c1=O (centres unmarked) [Compound 248]	1260	
Cc1cc2ccc(C(C)(C#N)C3CCc4ccc(Br)cc43)cc2[nH]c1=O (centres unmarked) [Compound 249]	2510	2
Cc1cc2ccc(C(C)(C#N)C3CCc4ccc(C#N)cc43)cc2[nH]c1=O (centres unmarked) [Compound 250]	398	
Cc1cc2ccc(C(C)(C#N)CCCCOc3ccccc3)cc2[nH]c1=O (centres unmarked) [Compound 272]	501	
CCc1cc2ccc(C(C)(C#N)CN(C)CCc3cn(C)c4ccccc34)cc2[nH]c1=O (centres unmarked) [Compound 303]	126	
Cc1cc2ccc(C(C)(C#N)Cc3cccc(Oc4ccccn4)c3)cc2[nH]c1=O (centres unmarked) [Compound 304]	1000	
CCc1cc2ccc(C(C#N)(CC)Cc3nc(C#N)cc(OC)n3)cc2[nH]c1=O (centres unmarked) [Compound 316]	126	2
CCc1cc2ccc(C(C#N)(CC)Cc3nc(OC)cc(OC)n3)cc2[nH]c1=O (centres unmarked) [Compound 321]	158	2
Cc1cc2ccc([C@@](C)(C#N)[C@@H]3CCCc4ccccc43)cc2[nH]c1=O [Compound 382]	2000	
CCc1cc2ccc(C(C#N)(CC)C3CCc4ccc(OC)cc43)cc2[nH]c1=O (centres unmarked) [Compound 403]	2510	
Cc1cc2ccc([C@@](C)(C#N)[C@H]3CCc4ccc(Br)cc43)cc2[nH]c1=O [Compound 405]	5010	
Cc1cc2ccc([C@](C)(C#N)[C@@H]3CCc4ccc(Br)cc43)cc2[nH]c1=O [Compound 406]	5010	
Cc1cc2ccc([C@](C)(C#N)[C@H]3CCc4ccc(Br)cc43)cc2[nH]c1=O [Compound 407]	6310	
